Assay results as given in PubChem BioAssay (NCI).
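The compound was tested at five concentrations on cells cultured in 96-well plates, with a 48-hour exposure period. The concentration for 50% growth inhibition is given as GI50. At the TGI there is no net growth.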

How the values were obtained:
Assay in all cases: NCI-60 cell line screen, 48 h
SK-MEL-28 melanoma = tested on: SK-MEL-28 melanoma
MCF7 breast = tested on: MCF7 breast
HCT-116 colon = tested on: HCT-116 colon
NCI-H23 lung = tested on: NCI-H23 lung
A498 renal = tested on: A498 renal
HS 578T breast = tested on: HS 578T breast
SNB-19 CNS = tested on: SNB-19 CNS
NCI-H226 lung = tested on: NCI-H226 lung
M14 melanoma = tested on: M14 melanoma
HT29 colon = tested on: HT29 colon
IGROV1 ovarian = tested on: IGROV1 ovarian
MDA-MB-435 = tested on: MDA-MB-435
SK-MEL-2 melanoma = tested on: SK-MEL-2 melanoma
CCRF-CEM leukemia = tested on: CCRF-CEM leukemia
RPMI-8226 leukemia = tested on: RPMI-8226 leukemia
DU-145 prostate = tested on: DU-145 prostate
UACC-257 melanoma = tested on: UACC-257 melanoma
HL-60(TB) leukemia = tested on: HL-60(TB) leukemia
PC-3 prostate = tested on: PC-3 prostate
SF-539 CNS = tested on: SF-539 CNS
CAKI-1 renal = tested on: CAKI-1 renal
U251 CNS = tested on: U251 CNS
KM12 colon = tested on: KM12 colon
K-562 leukemia = tested on: K-562 leukemia
ACHN renal = tested on: ACHN renal
786-0 renal = tested on: 786-0 renal
HOP-62 NSCLC = tested on: HOP-62 NSCLC
SK-MEL-5 melanoma = tested on: SK-MEL-5 melanoma
SN12C renal = tested on: SN12C renal
OVCAR-5 ovarian = tested on: OVCAR-5 ovarian
RXF 393 renal = tested on: RXF 393 renal
MDA-MB-468 breast = tested on: MDA-MB-468 breast
SNB-75 CNS = tested on: SNB-75 CNS
BT-549 breast = tested on: BT-549 breast
OVCAR-4 ovarian = tested on: OVCAR-4 ovarian
HCT-15 colon = tested on: HCT-15 colon
UO-31 renal = tested on: UO-31 renal
OVCAR-3 ovarian = tested on: OVCAR-3 ovarian
EKVX NSCLC = tested on: EKVX NSCLC
HOP-92 NSCLC = tested on: HOP-92 NSCLC
TK-10 renal = tested on: TK-10 renal
MDA-MB-231 breast = tested on: MDA-MB-231 breast
NCI-H460 lung = tested on: NCI-H460 lung
A549 NSCLC = tested on: A549 NSCLC
SF-295 CNS = tested on: SF-295 CNS
HCC-2998 colon = tested on: HCC-2998 colon
UACC-62 melanoma = tested on: UACC-62 melanoma
MALME-3M melanoma = tested on: MALME-3M melanoma
T-47D breast = tested on: T-47D breast
SF-268 CNS = tested on: SF-268 CNS
NCI-H522 lung = tested on: NCI-H522 lung
MOLT-4 leukemia = tested on: MOLT-4 leukemia
OVCAR-8 ovarian = tested on: OVCAR-8 ovarian
SK-OV-3 ovarian = tested on: SK-OV-3 ovarian

O=C(/C=C/c1cccc(OCc2ccccc2)c1)c1nc2ccccc2[nH]1
GI50 (SK-MEL-28 melanoma): 25.2 µM
TGI (SK-MEL-28 melanoma): > 100 µM
GI50 (MCF7 breast): 2900 nM
TGI (MCF7 breast): > 100 µM
GI50 (HCT-116 colon): 3.2 µM
TGI (HCT-116 colon): > 100 µM
GI50 (NCI-H23 lung): 18.3 µM
TGI (NCI-H23 lung): > 100 µM
GI50 (A498 renal): 25 µM
TGI (A498 renal): > 100 µM
GI50 (HS 578T breast): 20.3 µM
TGI (HS 578T breast): 82.5 µM
GI50 (SNB-19 CNS): 13.6 µM
TGI (SNB-19 CNS): 41.1 µM
GI50 (NCI-H226 lung): 24.3 µM
TGI (NCI-H226 lung): > 100 µM
GI50 (M14 melanoma): 45.1 µM
TGI (M14 melanoma): > 100 µM
GI50 (HT29 colon): 3.98 µM
TGI (HT29 colon): > 100 µM
GI50 (IGROV1 ovarian): 14 µM
TGI (IGROV1 ovarian): 78.2 µM
GI50 (MDA-MB-435): > 100 µM
TGI (MDA-MB-435): > 100 µM
GI50 (SK-MEL-2 melanoma): 22.5 µM
TGI (SK-MEL-2 melanoma): 64.8 µM
GI50 (CCRF-CEM leukemia): 8.99 µM
TGI (CCRF-CEM leukemia): > 100 µM
GI50 (RPMI-8226 leukemia): 2860 nM
TGI (RPMI-8226 leukemia): 8.3 µM
GI50 (DU-145 prostate): 54.6 µM
TGI (DU-145 prostate): > 100 µM
GI50 (UACC-257 melanoma): > 100 µM
TGI (UACC-257 melanoma): > 100 µM
GI50 (HL-60(TB) leukemia): 4.39 µM
TGI (HL-60(TB) leukemia): 25 µM
GI50 (PC-3 prostate): 15.9 µM
TGI (PC-3 prostate): > 100 µM
GI50 (SF-539 CNS): 8.82 µM
TGI (SF-539 CNS): 26.7 µM
GI50 (CAKI-1 renal): 14 µM
TGI (CAKI-1 renal): > 100 µM
GI50 (U251 CNS): 3.03 µM
TGI (U251 CNS): 10.2 µM
GI50 (KM12 colon): 3.56 µM
TGI (KM12 colon): > 100 µM
GI50 (K-562 leukemia): 4.14 µM
TGI (K-562 leukemia): > 100 µM
GI50 (ACHN renal): 29.6 µM
TGI (ACHN renal): > 100 µM
GI50 (786-0 renal): 14 µM
TGI (786-0 renal): 44.1 µM
GI50 (HOP-62 NSCLC): 17.8 µM
TGI (HOP-62 NSCLC): 43.2 µM
GI50 (SK-MEL-5 melanoma): 39.1 µM
TGI (SK-MEL-5 melanoma): > 100 µM
GI50 (SN12C renal): 38 µM
TGI (SN12C renal): > 100 µM
GI50 (OVCAR-5 ovarian): 25.2 µM
TGI (OVCAR-5 ovarian): > 100 µM
GI50 (RXF 393 renal): 10.5 µM
TGI (RXF 393 renal): 27.9 µM
GI50 (MDA-MB-468 breast): 10.7 µM
TGI (MDA-MB-468 breast): 82.5 µM
GI50 (SNB-75 CNS): 14.4 µM
TGI (SNB-75 CNS): 48.7 µM
GI50 (BT-549 breast): 11.4 µM
TGI (BT-549 breast): 40.2 µM
GI50 (OVCAR-4 ovarian): 23.9 µM
TGI (OVCAR-4 ovarian): > 100 µM
GI50 (HCT-15 colon): 3.06 µM
TGI (HCT-15 colon): > 100 µM
GI50 (UO-31 renal): 8.96 µM
TGI (UO-31 renal): > 100 µM
GI50 (OVCAR-3 ovarian): 4.01 µM
TGI (OVCAR-3 ovarian): > 100 µM
GI50 (EKVX NSCLC): 19.9 µM
TGI (EKVX NSCLC): 69.7 µM
GI50 (HOP-92 NSCLC): 6.51 µM
TGI (HOP-92 NSCLC): 37.2 µM
GI50 (TK-10 renal): 28.6 µM
TGI (TK-10 renal): > 100 µM
GI50 (MDA-MB-231 breast): 11.9 µM
TGI (MDA-MB-231 breast): 42.5 µM
GI50 (NCI-H460 lung): 15.4 µM
TGI (NCI-H460 lung): > 100 µM
GI50 (A549 NSCLC): 49.9 µM
TGI (A549 NSCLC): > 100 µM
GI50 (SF-295 CNS): 15.6 µM
TGI (SF-295 CNS): 37.9 µM
GI50 (HCC-2998 colon): 7.19 µM
TGI (HCC-2998 colon): 41.3 µM
GI50 (UACC-62 melanoma): 15.6 µM
TGI (UACC-62 melanoma): > 100 µM
GI50 (MALME-3M melanoma): 28.3 µM
TGI (MALME-3M melanoma): > 100 µM
GI50 (T-47D breast): 6.9 µM
TGI (T-47D breast): > 100 µM
GI50 (SF-268 CNS): 26.2 µM
TGI (SF-268 CNS): > 100 µM
GI50 (NCI-H522 lung): 26.3 µM
TGI (NCI-H522 lung): > 100 µM
GI50 (MOLT-4 leukemia): 5.28 µM
TGI (MOLT-4 leukemia): 55.1 µM
GI50 (OVCAR-8 ovarian): 17 µM
TGI (OVCAR-8 ovarian): 72.6 µM
GI50 (SK-OV-3 ovarian): 20.2 µM
TGI (SK-OV-3 ovarian): 73.9 µM
